In US11760986B2, “Evolution of proteases” (President and Fellows of Harvard College, priority 2014, dated 2023):

What was measured:
wild-type HCV protease = molecular target: T1, wild-type HCV protease (Hepatitis C virus genotype 1a, UniProt P27958, L1039E/L1040E/I1043Q/I1044E/L1047Q/C1073S/C1078L/I1098T/Q1106K/P1112Q/L1179I/C1185S/N1200S, form not given); experiment: In vitro HCV protease inhibition assay with internally quenched fluorescent substrate (HCV RET Substrate 1, Anaspec); type: biochemical; conditions: 40 nM protease, 7.5 μM substrate, 30° C., IC50±standard deviation
T1 construct: 6xHis-TEVcutsite-HCV protease 2610 . .; fused on or other part: N-terminal Met-6xHis-TEV site, then an NS4A cofactor peptide ([…], about NS4A 21-33 with C22S and V30N); The peptide is fused in front of NS3 residue 4; The helicase domain is absent; the chain ends at NS3 182
Procedure: Purification and in vitro assays of evolved HCV variants. HCV protease variants were sub-cloned by Gibson assembly out of the phage genome and into the previously mentioned EP. EPs were transformed into NEB BL21 DE3 chemically competent cells. Starter cultures were grown to saturation, and 2 mL was used to inoculate 500 mL LB. At OD600=0.6, cultures were transferred to 20° C. and induced with 0.5% arabinose for 6 h. Cells were harvested by centrifugation at 5,000 g for 10 m, and resuspended in lysis/bind buffer (50 mM Tris-HCl pH 8.0, 500 mM NaCl, 10% glycerol, 5 mM imidazole). Cells were lysed by sonication for a total of 2 m, and then centrifuged for 20 m at 18,000 g to clarify the lysate. Supernatant was flowed through 0.2 mL His-pur nickel resin spin columns that were equilibrated with binding buffer (Pierce-Thermo). […] Protein concentrations were determined by UV280 on a Nanodrop machine and calculated using an extinction coefficient of 19,000 cm^−1 M^−1 and a molecular weight of 23 kDa.
In vitro assays were performed using the commercial HCV RET Substrate 1 (Anaspec), an internally quenched probe that fluoresces upon proteolytic cleavage, according to the manufacturer's instructions. […] Assays were performed in triplicate, and initial reaction velocities were calculated and normalized to controls without inhibitor. […]

HCV protease D168E [1] = type: biochemical, hepatitis C virus; conditions: D168E versus wild-type HCV protease
Procedure: (§1) Purification and in vitro assays of evolved HCV variants. HCV protease variants were sub-cloned by Gibson assembly out of the phage genome and into the previously mentioned EP. EPs were transformed into NEB BL21 DE3 chemically competent cells. Starter cultures were grown to saturation, and 2 mL was used to inoculate 500 mL LB. At OD600=0.6, cultures were transferred to 20° C. and induced with 0.5% arabinose for 6 h. Cells were harvested by centrifugation at 5,000 g for 10 m, and resuspended in lysis/bind buffer (50 mM Tris-HCl pH 8.0, 500 mM NaCl, 10% glycerol, 5 mM imidazole). Cells were lysed by sonication for a total of 2 m, and then centrifuged for 20 m at 18,000 g to clarify the lysate. Supernatant was flowed through 0.2 mL His-pur nickel resin spin columns that were equilibrated with binding buffer (Pierce-Thermo). Resin was washed with 4 column volumes of wash buffer (50 mM Tris-HCl pH 8.0, 500 mM NaCl, 10% glycerol, 20 mM imidazole). HCV protease was eluted in 4 column volumes of 50 mM Tris-HCl pH 8.0, 500 mM NaCl, 10% glycerol, 200 mM imidazole. Samples were further purified by size exclusion chromatography on a SuperDex 75 10/300 GL column (GE Healthcare). Size exclusion was performed in 50 mM Tris-HCl pH 8.0, 100 mM NaCl, 10% glycerol, 1 mM DTT. Protein concentrations were determined by UV280 on a Nanodrop machine and calculated using an extinction coefficient of 19,000 cm^−1 M^−1 and a molecular weight of 23 kDa.
(§2) In vitro assays were performed using the commercial HCV RET Substrate 1 (Anaspec), an internally quenched probe that fluoresces upon proteolytic cleavage, according to the manufacturer's instructions. Protease and inhibitors were incubated in assay buffer at room temperature for 5 m prior to addition of substrate. […] The assay buffer contained 50 mM Tris HCl pH 8.0, 100 mM NaCl, 20% glycerol, 5 mM DTT. Assays were performed in triplicate, and initial reaction velocities were calculated and normalized to controls without inhibitor. The data was fit to the Hill Equation using Igor Pro with base and max parameters fixed at one and zero respectively.

HCV protease D168E [2] = molecular target: T2, HCV protease D168E (Hepatitis C virus genotype 1a, UniProt P27958, L1039E/L1040E/I1043Q/I1044E/L1047Q/C1073S/C1078L/I1098T/Q1106K/P1112Q/L1179I/C1185S/D1194E/N1200S, form not given); type: biochemical; conditions: HCV protease D168E; 40 nM protease, 7.5 μM substrate, 30° C.; IC50±standard deviation
T2 construct: 6xHis-TEVcutsite-HCV protease 2610 . .; fused on or other part: N-terminal Met-6xHis-TEV site, then an NS4A cofactor peptide ([…], about NS4A 21-33 with C22S and V30N); The peptide is fused in front of NS3 residue 4; The helicase domain is absent; the chain ends at NS3 182
Procedure: as §1, §2

[3] = system: HCV protease on the HCV PA-RNAP; conditions: host cells incubated with inhibitor 90 min, then HCV protease phage, luminescence after 3 h
Procedure: Inhibition of PA-RNAP response in host E. coli cells. […] After 3 h of incubation at 37° C., the luminescence of each culture was measured on a Tecan Infinite Pro plate reader and normalized to OD600. In the absence of inhibitor, phage-encoded protease will activate the PA-RNAP leading to robust production of luciferase. Relative dose responses to inhibitors compared to control cells without drug were measured in triplicate.

HCV protease = HCV protease (Hepatitis C virus genotype 1a, UniProt P27958); conditions: literature value (refs 35, 36); cited from earlier work
HCV protease D168Y [4] = experiment: biochemical; parameters: species or system hepatitis C virus; conditions: D168Y versus wild-type HCV protease
Procedure: as §1, §2

HCV protease D168Y [5] = molecular target: T3, HCV protease D168Y (Hepatitis C virus genotype 1a, UniProt P27958, C1073S/C1078L/C1185S/D1194Y/I1043Q/I1044E/I1098T/L1039E/L1040E/L1047Q/L1179I/N1200S/P1112Q/Q1106K/T1100M/T1173A); experiment: biochemical
T3 construct: 6xHis (N); TEV cleavage site (N); NS4a cofactor peptide (fused in the construct, before NS3) (N); made in house; host or cells: E. coli NEB BL21 DE3
Procedure: as §1, §2

| SMILES | IC50 (wild-type HCV protease) | increase of the IC50 by the mutation (HCV protease D168E [1]) | IC50 (HCV protease D168E [2]) | inhibition of cellular gene expression arising from the activity of HCV protease on the HCV PA-RNAP [3] | IC50 (HCV protease) | increase of the IC50 by the mutation (HCV protease D168Y [4]) | IC50 (HCV protease D168Y [5]) |
| --- | --- | --- | --- | --- | --- | --- | --- |
| CC(C)(C)OC(=O)N[C@H]1CCCCC/C=C\[C@@H]2C[C@@]2(C(=O)NS(=O)(=O)C2CC2)NC(=O)[C@@H]2C[C@@H](OC(=O)N3Cc4cccc(F)c4C3)CN2C1=O [danoprevir] | 1.3 ± 0.1 nM | ~30 fold | 38.9 ± 2.4 nM | in a dose-dependent manner | ~0.3 nM | ~30 fold | 34.4 ± 2.8 nM |
| C=C[C@@H]1C[C@]1(NC(=O)[C@@H]1C[C@@H](Oc2ncc(OC)c3ccc(Cl)cc23)CN1C(=O)[C@@H](NC(=O)OC(C)(C)C)C(C)(C)C)C(=O)NS(=O)(=O)C1CC1 [asunaprevir] |  | ~10 fold |  | in a dose-dependent manner |  | 30 fold |  |
